Columns and labels:
[1] = target: HDAC2 (Homo sapiens, UniProt Q92769); assay: Inhibition of histone deacetylase isoforms, HDAC2
Experimental: (§1) Recombinant human enzymes were acquired from BPS Biosciences (CA, USA). Isoforms of Class I HDAC1, 2, 3; HDAC6, 10 of Class IIb and Class IV HDAC11 were tested using the Fluor-de-Lys fluorogenic synthetic substrate (Enzo Life Sciences, Plymouth Meeting, Pa.). […] The recombinant human HDAC8 assay was performed using HDAC8 Fluorimetric Drug Discovery Kit (Enzo) according to the manufacturer instructions. Each inhibitor was dissolved in DMSO and then further diluted in an assay buffer. […] The assays were performed by pre-incubating each enzyme with the inhibitors for 15 minutes at 37° C. The reaction was started by adding the substrate at 37° C. and allowed to proceed for 60 minutes. The fluorescent signal was generated by adding 50 μL of a twice concentrated developer solution 2 (Enzo) containing trichostatin A 4 μM.

[2] = target: HDAC1 (Homo sapiens, UniProt Q13547); assay: Inhibition of histone deacetylase isoforms, HDAC1
Experimental: (§2) Recombinant human enzymes were acquired from BPS Biosciences (CA, USA). Isoforms of Class I HDAC1, 2, 3; HDAC6, 10 of Class IIb and Class IV HDAC11 were tested using the Fluor-de-Lys fluorogenic synthetic substrate (Enzo Life Sciences, Plymouth Meeting, Pa.). […] Each inhibitor was dissolved in DMSO and then further diluted in an assay buffer. […] The assays were performed by pre-incubating each enzyme with the inhibitors for 15 minutes at 37° C. The reaction was started by adding the substrate at 37° C. and allowed to proceed for 60 minutes. The fluorescent signal was generated by adding 50 μL of a twice concentrated developer solution 2 (Enzo) containing trichostatin A 4 μM.

[3] = target: T1, HDAC8 (Homo sapiens, UniProt Q9BY41); assay: Inhibition of histone deacetylase isoforms, HDAC8
T1 sequence (Q9BY41 1-377): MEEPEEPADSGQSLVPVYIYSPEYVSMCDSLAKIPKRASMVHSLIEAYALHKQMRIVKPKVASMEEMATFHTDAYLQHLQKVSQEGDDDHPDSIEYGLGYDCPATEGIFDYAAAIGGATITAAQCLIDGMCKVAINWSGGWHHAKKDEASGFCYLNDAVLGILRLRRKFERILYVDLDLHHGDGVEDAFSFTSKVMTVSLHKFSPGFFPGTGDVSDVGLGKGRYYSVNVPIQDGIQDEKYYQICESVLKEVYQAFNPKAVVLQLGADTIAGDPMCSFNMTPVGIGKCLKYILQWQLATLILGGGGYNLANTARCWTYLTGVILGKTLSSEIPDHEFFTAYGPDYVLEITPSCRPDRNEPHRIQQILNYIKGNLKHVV
Experimental: as §1

[4] = target: T2, HDAC7 (Homo sapiens, UniProt Q8WUI4); assay: Inhibition of histone deacetylase isoforms, HDAC7
T2 sequence (Q8WUI4 1-952): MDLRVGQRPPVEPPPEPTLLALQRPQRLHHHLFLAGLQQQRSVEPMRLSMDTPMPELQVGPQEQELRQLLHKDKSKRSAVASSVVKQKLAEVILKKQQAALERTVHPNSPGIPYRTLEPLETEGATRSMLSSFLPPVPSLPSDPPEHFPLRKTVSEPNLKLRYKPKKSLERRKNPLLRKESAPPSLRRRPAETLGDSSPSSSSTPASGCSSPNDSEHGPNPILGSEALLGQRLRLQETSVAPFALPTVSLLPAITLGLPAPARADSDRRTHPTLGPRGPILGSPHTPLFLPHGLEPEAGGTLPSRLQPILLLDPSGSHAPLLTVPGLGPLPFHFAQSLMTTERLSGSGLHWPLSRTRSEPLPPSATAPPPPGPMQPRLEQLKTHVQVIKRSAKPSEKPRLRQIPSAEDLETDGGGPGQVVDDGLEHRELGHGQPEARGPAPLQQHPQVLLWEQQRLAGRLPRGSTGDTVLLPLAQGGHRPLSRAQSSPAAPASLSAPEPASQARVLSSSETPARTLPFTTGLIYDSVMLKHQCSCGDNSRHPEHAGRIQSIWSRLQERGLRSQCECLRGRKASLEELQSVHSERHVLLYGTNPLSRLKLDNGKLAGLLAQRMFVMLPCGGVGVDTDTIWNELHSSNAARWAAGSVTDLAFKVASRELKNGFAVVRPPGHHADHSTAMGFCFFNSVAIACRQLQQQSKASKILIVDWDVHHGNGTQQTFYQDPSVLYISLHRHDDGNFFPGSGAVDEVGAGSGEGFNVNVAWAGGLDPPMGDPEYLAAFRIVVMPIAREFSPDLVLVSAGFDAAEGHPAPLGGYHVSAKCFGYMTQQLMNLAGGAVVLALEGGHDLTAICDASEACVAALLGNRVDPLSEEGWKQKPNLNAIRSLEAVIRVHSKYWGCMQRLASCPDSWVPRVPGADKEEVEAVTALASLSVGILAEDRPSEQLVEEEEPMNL
Experimental: as §1

[5] = target: HDAC9 (Homo sapiens, UniProt Q9UKV0); assay: Inhibition of histone deacetylase isoforms, HDAC9
Experimental: as §2

[6] = target: T3, HDAC6 (Homo sapiens, UniProt Q9UBN7); assay: Inhibition of histone deacetylase isoforms, HDAC6
T3 sequence (Q9UBN7 1-1215): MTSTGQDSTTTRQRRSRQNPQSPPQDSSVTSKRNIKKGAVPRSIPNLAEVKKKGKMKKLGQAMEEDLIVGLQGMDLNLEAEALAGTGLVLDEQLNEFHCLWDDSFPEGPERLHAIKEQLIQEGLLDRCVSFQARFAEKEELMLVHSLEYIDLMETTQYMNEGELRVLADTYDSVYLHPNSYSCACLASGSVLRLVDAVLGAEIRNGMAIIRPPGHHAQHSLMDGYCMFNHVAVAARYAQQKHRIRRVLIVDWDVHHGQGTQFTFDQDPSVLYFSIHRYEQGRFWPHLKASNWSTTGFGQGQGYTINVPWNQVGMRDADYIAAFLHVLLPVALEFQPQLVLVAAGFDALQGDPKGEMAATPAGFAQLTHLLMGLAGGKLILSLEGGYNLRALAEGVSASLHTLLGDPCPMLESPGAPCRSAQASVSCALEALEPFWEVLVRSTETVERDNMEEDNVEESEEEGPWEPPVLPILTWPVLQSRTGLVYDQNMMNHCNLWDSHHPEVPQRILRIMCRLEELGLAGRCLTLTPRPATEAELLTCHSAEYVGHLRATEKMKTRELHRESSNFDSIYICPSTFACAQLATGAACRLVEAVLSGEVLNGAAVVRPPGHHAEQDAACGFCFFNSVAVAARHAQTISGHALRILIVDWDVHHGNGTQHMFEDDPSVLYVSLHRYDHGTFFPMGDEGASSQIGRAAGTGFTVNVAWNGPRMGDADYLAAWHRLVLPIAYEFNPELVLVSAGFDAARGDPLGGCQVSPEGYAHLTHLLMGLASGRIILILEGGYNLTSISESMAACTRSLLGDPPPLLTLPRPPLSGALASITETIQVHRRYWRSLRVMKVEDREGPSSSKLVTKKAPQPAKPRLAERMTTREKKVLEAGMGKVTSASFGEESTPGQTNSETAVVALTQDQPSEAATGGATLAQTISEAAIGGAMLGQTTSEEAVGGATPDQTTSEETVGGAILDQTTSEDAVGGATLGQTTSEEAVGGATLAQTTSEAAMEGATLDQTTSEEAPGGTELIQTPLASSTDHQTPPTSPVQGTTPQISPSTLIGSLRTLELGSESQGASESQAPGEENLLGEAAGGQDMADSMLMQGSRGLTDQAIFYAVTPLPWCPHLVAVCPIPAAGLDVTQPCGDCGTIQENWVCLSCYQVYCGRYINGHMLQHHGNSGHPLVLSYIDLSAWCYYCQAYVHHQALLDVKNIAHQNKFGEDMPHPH
Experimental: as §1

HDAC9, sequence (Q9UKV0 whole entry, canonical isoform): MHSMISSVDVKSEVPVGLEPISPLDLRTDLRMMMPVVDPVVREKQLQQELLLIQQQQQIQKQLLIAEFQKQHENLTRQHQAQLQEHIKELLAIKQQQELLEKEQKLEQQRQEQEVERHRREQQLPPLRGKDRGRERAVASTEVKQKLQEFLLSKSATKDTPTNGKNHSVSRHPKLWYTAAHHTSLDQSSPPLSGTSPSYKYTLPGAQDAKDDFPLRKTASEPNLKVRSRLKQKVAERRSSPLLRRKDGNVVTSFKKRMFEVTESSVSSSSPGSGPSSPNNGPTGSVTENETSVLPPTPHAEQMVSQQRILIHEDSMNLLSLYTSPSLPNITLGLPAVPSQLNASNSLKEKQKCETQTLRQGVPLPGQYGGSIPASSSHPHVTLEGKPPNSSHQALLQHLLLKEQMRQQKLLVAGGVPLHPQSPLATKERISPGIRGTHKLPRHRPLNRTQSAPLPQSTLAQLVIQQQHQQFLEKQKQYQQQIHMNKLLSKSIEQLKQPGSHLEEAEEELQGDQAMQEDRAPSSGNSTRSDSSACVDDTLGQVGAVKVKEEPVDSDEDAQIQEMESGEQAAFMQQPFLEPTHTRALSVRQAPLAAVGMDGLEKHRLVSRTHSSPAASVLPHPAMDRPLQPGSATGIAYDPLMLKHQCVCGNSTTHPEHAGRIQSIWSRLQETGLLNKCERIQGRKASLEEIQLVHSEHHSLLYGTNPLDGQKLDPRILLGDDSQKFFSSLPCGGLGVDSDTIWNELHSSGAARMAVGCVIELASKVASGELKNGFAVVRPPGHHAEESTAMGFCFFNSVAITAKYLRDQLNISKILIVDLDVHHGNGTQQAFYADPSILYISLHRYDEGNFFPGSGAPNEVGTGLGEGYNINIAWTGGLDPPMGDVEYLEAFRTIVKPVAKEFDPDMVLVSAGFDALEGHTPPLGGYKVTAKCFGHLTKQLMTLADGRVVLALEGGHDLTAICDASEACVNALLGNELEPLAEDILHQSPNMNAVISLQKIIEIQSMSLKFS
HDAC2, sequence (Q92769 whole entry, canonical isoform): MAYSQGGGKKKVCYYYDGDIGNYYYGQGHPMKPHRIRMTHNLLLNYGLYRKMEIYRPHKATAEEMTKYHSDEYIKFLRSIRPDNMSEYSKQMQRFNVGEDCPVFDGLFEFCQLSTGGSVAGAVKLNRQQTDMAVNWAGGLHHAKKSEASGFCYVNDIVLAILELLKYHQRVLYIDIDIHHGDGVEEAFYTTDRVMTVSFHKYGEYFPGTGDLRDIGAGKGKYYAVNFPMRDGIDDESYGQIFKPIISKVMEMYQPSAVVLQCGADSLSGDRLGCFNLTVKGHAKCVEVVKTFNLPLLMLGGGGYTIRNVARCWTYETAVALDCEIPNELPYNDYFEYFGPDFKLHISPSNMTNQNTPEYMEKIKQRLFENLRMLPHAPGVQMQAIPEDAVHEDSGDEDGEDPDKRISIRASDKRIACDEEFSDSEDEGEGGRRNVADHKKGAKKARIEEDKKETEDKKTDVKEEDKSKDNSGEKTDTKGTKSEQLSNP
HDAC1, sequence (Q13547 whole entry, canonical isoform): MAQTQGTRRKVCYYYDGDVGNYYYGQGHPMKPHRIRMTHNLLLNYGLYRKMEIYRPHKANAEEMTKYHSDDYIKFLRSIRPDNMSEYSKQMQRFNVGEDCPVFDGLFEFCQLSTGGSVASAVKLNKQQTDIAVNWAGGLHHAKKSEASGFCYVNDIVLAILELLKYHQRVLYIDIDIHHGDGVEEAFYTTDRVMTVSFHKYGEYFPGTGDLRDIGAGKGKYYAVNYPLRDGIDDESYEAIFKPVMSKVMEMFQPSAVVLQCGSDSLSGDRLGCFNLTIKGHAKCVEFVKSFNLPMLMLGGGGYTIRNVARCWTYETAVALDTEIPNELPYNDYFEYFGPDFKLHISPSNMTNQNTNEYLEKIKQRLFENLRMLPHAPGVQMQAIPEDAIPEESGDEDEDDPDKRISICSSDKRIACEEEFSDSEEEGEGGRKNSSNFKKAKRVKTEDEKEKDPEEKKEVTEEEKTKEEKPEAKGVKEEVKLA

Row | SMILES | IC50 [1] | IC50 [2] | IC50 [3] | IC50 [4] | IC50 [5] | IC50 [6]
1 | O=C(NO)c1ccc(NC(=O)[C@H](Cc2ccc3ccccc3c2)NC(=O)c2ccccc2)cc1 [Compound g, 4-(2(S)-benzoylamino-3-naphtalen-2-yl-propionylamino)-N-hydroxy-benzamide] | 12 nM | 54.7 nM | 492 nM | 2020 nM | 4150 nM | 3620 nM
2 | O=C(NO)c1ccc(NC(=O)[C@H](Cc2ccc3ccccc3c2)NC(=O)c2ccc3c(c2)OCO3)cc1 [Compound t, benzo[1,3]dioxole-5-carboxylic acid [1(S)-(4-hydroxycarbamoyl-phenylcarbamoyl)-2-naphtalen-2-yl-ethy]-amide] | 29.5 nM | 71.5 nM | 162 nM | 8620 nM | > 10000 nM | 618 nM

Reference: patent publication US8637702B2, “Derivatives of N-hydroxybenzamide for treating HIV infections” (Italfarmaco S.p.A., priority 2009, dated 2014)
